Values of other authors, collected in patent publication US12280046B2, “Melanocortin subtype-2 receptor (MC2R) antagonist for the treatment of disease” (Crinetics Pharmaceuticals, Inc., priority 2021, dated 2025).
Starred links: 1 amine or outer side, 2 acyl side, 3 side chain; linkers in the order of their positions; H or OH if unused. Non-standard residues stand in square brackets, D forms with d. Residues, ends and D or L forms follow the SMILES beside them. Groups on a side chain read outwards from the residue. *: point of attachment. Ethylenediamine = C(CN[*:2])N[*:1]; Hyp = O=C(O)[C@@H]1C[C@@H](O)CN1; Phg = N[C@H](C(=O)O)c1ccccc1; CO = O=C([*:1])[*:2]; Bn = c1ccc(C*)cc1

Tests used:
[1] = assumption for full suppression curve; cited from earlier work
[2] = Phase 3 trial; cited from earlier work

C[C@]12CCC(=O)C=C1CC[C@@H]1[C@@H]2[C@@H](O)C[C@@]2(C)[C@H]1CC[C@]2(O)C(=O)CO [cortisol]
half-life [1]: 1.1 ± 0.3 h

NCCCC[C@@H]1NC(=O)[C@@H](Cc2c[nH]c3ccccc23)NC(=O)[C@H](c2ccccc2)NC(=O)[C@@H]2C[C@@H](OC(=O)NCCN)CN2C(=O)[C@H](Cc2ccccc2)NC(=O)[C@H](Cc2ccc(OCc3ccccc3)cc2)NC1=O [pasireotide] (cyclo([Hyp]([CO-Ethylenediamine])[Phg][dW]KY(Bn)F))
patients achieving normalization of urinary free cortisol [2]: 15-26% | patients with a hyperglycemia-related adverse event [2]: 73%
